In US20240400591A1 (Jacobio Pharmaceuticals Co., Ltd., priority 2021, published 2024):
Read-outs that look alike come from different tables or passages of the source.

Experiments:
[1] = target: T1, His-p53 Y220C (94-294) protein (Homo sapiens, UniProt P04637, Y220C); experiment: In vitro DNA binding assay (HTRF); format: biochemical; conditions: % activation normalized to 2 μM Ref-1a high control
T1 construct: His-p53 Y220C (94-294) protein

[2] = tested on: NUGC-3_P53_Luc single clonal cell line (p53 Y220C); experiment: Reporter gene assay (p53 RE luciferase); format: cell-based
Protocol: NUGC-3_P53_Luc single clonal cell line was established using pGL4.38[luc2P/p53 RE/Hygro] Vector (E365A, promega). NUGC-3_P53-Luc single clonal cells were cultured in 37° C. cell incubator before use. NUGC-3-P53-Luc cells were collected and washed twice with PBS to remove phenol red and then resuspended in medium to a proper concentration. Tested compound dilutions were transferred into 384 well assay plates (PerkinElmer). A desired number of cells was seeded into the assay plate and cultured for 6 hours at 37° C. cell incubator. Britelite plus Luciferase Assay Reagent were added into each well and the luminescence value was recorded on Envision. The percent of activity value of compounds treated wells was normalized between high control and low control. Wells containing cells and Ref-1a (10 μM) sewved as high control, and wells containing cells and same percentage of DMSO sewved as low control. Activity value (%)=(Luminescence readoutCompound treated−Luminescence readoutLow control)/(Luminescence readoutHigh control−Luminescence readoutLow control)*100%. Then the data were analyzed either by fitting a 4-parameter logistic model or by Excel to calculate EC50 values and the EC50 was the concentration at 50% Activity on the curve.

NUGC3 (P53 Y220C) = experiment: Cell viability assay (CellTiter-Glo, 6 days), NUGC3; format: cell-based
Protocol: (§1) Cells were collected and counted. A desired number of cells was seeded into 96-well microplate and cultured in 37° C. cell incubator overnight. Compounds dissolved in cell culture medium were added into cell plate and cultured for 6 days. After balancing CellTiter-Glo reagent and cells at room temperature for 30 min, equal volume of CellTiter-Glo reagents was added to assay plate and shaken for 2 min for cell lysis. The cells were balanced at room temperature for 10 minutes and Luminescence signal was read using Envision. The percent of cell viability for compounds treated wells were normalized between High control and low control. Wells containing cell culture medium and same percentage DMSO sewved as Low control. Wells containing cells and same percentage DMSO sewved as High control. Cell viability (%)=(Luminescence readoutCompound treated−Luminescence readoutLow control)/(Luminescence readoutHigh control−Luminescence readoutLow control)*100%. Then the data were analyzed either by fitting a 4-parameter logistic model or by Excel to calculate IC50 values. And the IC50 was the concentration at 50% Cell viability on the curve.

NUGC4 (P53 WT) = experiment: Cell viability assay (CellTiter-Glo, 6 days), NUGC4; format: cell-based
Protocol: as §1

[3] = Homo sapiens, NUGC-3, 6 h, luciferase reporter, 6 hours, normalized to Ref-1a (10 μM) high control, read-out: p53(Y220C)_NUGC-3 EC50
[4] = Homo sapiens, NUGC-3, 144 h, cell viability, 6 days, CellTiter-Glo, read-out: NUGC3 (P53 Y220C) IC50
[5] = Homo sapiens, NUGC-4, 144 h, cell viability, 6 days, CellTiter-Glo, read-out: NUGC4 (P53 WT) IC50
[6] = Homo sapiens, NUGC-3, luciferase reporter, 6 hours, normalized to Ref-1a (10 μM) high control, read-out: p53(Y220C)_NUGC-3 EC50
[7] = luciferase reporter, 6 hours, normalized to Ref-1a (10 μM) high control, read-out: p53(Y220C)_NUGC-3 EC50
[8] = cell viability, 6 days, CellTiter-Glo, read-out: NUGC3 (P53 Y220C) IC50
[9] = cell viability, 6 days, CellTiter-Glo, read-out: NUGC4 (P53 WT) IC50

EC50 [1] [nM] | SMILES | EC50 [2, 3] [µM] | IC50 (NUGC3 (P53 Y220C); [4]) [µM] | IC50 (NUGC4 (P53 WT); [5]) [µM] | EC50 [2, 6] [µM] | EC50 ([2]; Homo sapiens, NUGC-3, 6 h, read-out: p53(Y220C)_NUGC-3 EC50 (μM)) [µM] | IC50 (NUGC3 (P53 Y220C); Homo sapiens, NUGC-3, 144 h, read-out: NUGC3 (P53 Y220C) IC50 (μM)) [µM] | IC50 (NUGC4 (P53 WT); Homo sapiens, NUGC-4, 144 h, read-out: NUGC4 (P53 WT) IC50 (μM)) [µM] | EC50 [2, 7] [µM] | IC50 (NUGC3 (P53 Y220C); [8]) [µM] | IC50 (NUGC4 (P53 WT); [9]) [µM]
113 | CN1CC[C@@H](Nc2cccc3c(CC(F)(F)F)c(C#CCNc4ccc(P(C)(C)=O)c5c4OCCO5)sc23)[C@@H](F)C1 [Example 193, (8-((3-(7-(((3S,4R)-3-fluoro-1-methylpiperidin-4-yl)amino)-3-(2,2,2-trifluoroethyl)benzo[b]thiophen-2-yl)prop-2-yn-1-yl)amino)-2,3-dihydrobenzo[b][1,4]dioxin-5-yl)dimethylphosphine oxide] | – | 1.22 | 18.6 | 0.13 | – | – | – | – | – | –
34 | COc1cc(N2CCOCC2=O)ccc1NCC#Cc1sc2c(NC3CCN(C)CC3F)cccc2c1CC(F)(F)F (centres unmarked) [Example 192, 4-(4-((3-(7-((3-fluoro-1-methylpiperidin-4-yl)amino)-3-(2,2,2-trifluoroethyl)benzo[b]thiophen-2-yl)prop-2-yn-1-yl)amino)-3-methoxyphenyl)morpholin-3-one] | – | 1.19 | 7.61 | 0.13 | – | – | – | – | – | –
39 | COc1cc([S@@](C)(=N)=O)ccc1NCC#Cc1sc2c(N[C@@H]3CCN(C)C[C@@H]3F)cccc2c1CC(F)(F)F [Example 226, (S)-(4-((3-(7-(((3S,4R)-3-fluoro-1-methylpiperidin-4-yl)amino)-3-(2,2,2-trifluoroethyl)benzo[b]thiophen-2-yl)prop-2-yn-1-yl)amino)-3-methoxyphenyl)(imino)(methyl)-16-sulfanone] | – | – | – | – | – | – | – | 0.05 | 0.32 | 19.4
54 | COc1cc(P(C)(C)=O)ccc1NCC#Cc1sc2c(N[C@@H]3CCN(C4CCCCOC4)C[C@@H]3F)cccc2c1CC(F)(F)F (stereo partly drawn) [Example 185, (4-((3-(7-(((3S,4R)-3-fluoro-1-(oxepan-3-yl)piperidin-4-yl)amino)-3-(2,2,2-trifluoroethyl)benzo[b]thiophen-2-yl)prop-2-yn-1-yl)amino)-3-methoxyphenyl)dimethylphosphine oxide] | – | 0.88 | 2.79 | 0.11 | – | – | – | – | – | –
105 | COc1cc(P(C)(C)=O)ccc1NCC#Cc1sc2c(N[C@@H]3CCN(CC(C)C)C[C@@H]3F)cccc2c1CC(F)(F)F (racemic) [Example 101, (4-((3-(7-(((Z)-3-fluoro-1-isobutylpiperidin-4-yl)amino)-3-(2,2,2-trifluoroethyl)benzo[b]thiophen-2-yl)prop-2-yn-1-yl)amino)-3-methoxyphenyl)dimethylphosphine oxide] | – | 2.05 | 2.05 | 0.36 | – | – | – | – | – | –
16 | [2H]C([2H])([2H])N1CC[C@@H](Nc2cccc3c(CC(F)(F)F)c(C#CCNc4ccc(P(C)(C)=O)cc4OC)sc23)[C@@H](F)C1 [Example 210, (4-((3-(7-(((3S,4R)-3-fluoro-1-(methyl-d3)piperidin-4-yl)amino)-3-(2,2,2-trifluoroethyl)benzo[b]thiophen-2-yl)prop-2-yn-1-yl)amino)-3-methoxyphenyl)dimethylphosphine oxide] | – | 1.28 | 12 | 0.03 | – | – | – | – | – | –
60 | CCP(=O)(CC)c1ccc(NCC#Cc2sc3c(N[C@@H]4CCN(C)C[C@@H]4F)cccc3c2CC(F)(F)F)c(OCF)c1 (racemic) [Example 66, diethyl(4-((3-(7-(((Z)-3-fluoro-1-methylpiperidin-4-yl)amino)-3-(2,2,2-trifluoroethyl)benzo[b]thiophen-2-yl)prop-2-yn-1-yl)amino)-3-(fluoromethoxy)phenyl)phosphine oxide] | – | 0.82 | 10.3 | 0.12 | – | – | – | – | – | –
41 | CN1CC[C@@H](Nc2cccc3c(CC(F)(F)F)c(C#CCNc4ccc(P(C)(C)=O)c5ncsc45)sc23)[C@@H](F)C1 [Example 220, (7-((3-(7-(((3S,4R)-3-fluoro-1-methylpiperidin-4-yl)amino)-3-(2,2,2-trifluoroethyl)benzo[b]thiophen-2-yl)prop-2-yn-1-yl)amino)benzo[d]thiazol-4-yl)dimethylphosphine oxide] | – | 0.25 | 8.11 | 0.15 | – | – | – | – | – | –
46 | CN1CCC(Nc2cccc3c(CC(F)(F)F)c(C#CCNc4ccc(P(C)(C)=O)cc4OC(F)(F)F)sc23)C(F)C1 (centres unmarked) [Example 65, (4-((3-(7-(((Z)-3-fluoro-1-methylpiperidin-4-yl)amino)-3-(2,2,2-trifluoroethyl)benzo[b]thiophen-2-yl)prop-2-yn-1-yl)amino)-3-(trifluoromethoxy)phenyl)dimethylphosphine oxide] | – | – | – | – | – | – | – | 0.12 | 1.56 | 10
41 | CNC(=O)c1cc(NCC#Cc2sc3c(N[C@@H]4CCN(C5CCOCC5)C[C@@H]4F)cccc3c2CC(F)(F)F)c(OC)cc1P(C)(C)=O [Example 160, 2-dimethylphosphoryl-5-[3-[7-[[(3S,4R)-3-fluoro-1-tetrahydropyran-4-yl-4-piperidyl]amino]-3-(2,2,2-trifluoroethyl)benzothiophen-2-yl]prop-2-ynylamino]-4-methoxy-N-methyl-benzamide] | – | 1.41 | > 50 | 0.19 | – | – | – | – | – | –

SMILES | EC50 [1] [nM] | EC50 [2, 3] [µM] | IC50 (NUGC3 (P53 Y220C); [4]) [µM] | IC50 (NUGC4 (P53 WT); [5]) [µM] | EC50 [2, 6] [µM] | EC50 ([2]; Homo sapiens, NUGC-3, 6 h, read-out: p53(Y220C)_NUGC-3 EC50 (μM)) [µM] | IC50 (NUGC3 (P53 Y220C); Homo sapiens, NUGC-3, 144 h, read-out: NUGC3 (P53 Y220C) IC50 (μM)) [µM] | IC50 (NUGC4 (P53 WT); Homo sapiens, NUGC-4, 144 h, read-out: NUGC4 (P53 WT) IC50 (μM)) [µM] | EC50 [2, 7] [µM] | IC50 (NUGC3 (P53 Y220C); [8]) [µM] | IC50 (NUGC4 (P53 WT); [9]) [µM]
COc1cc(P(C)(C)=O)ccc1NCC#Cc1sc2c(N[C@@H]3CCN(C4CCOCC4)C[C@@H]3F)cccc2c1CC(F)(F)F [Example 147, (4-((3-(7-(((3S,4R)-3-fluoro-1-(tetrahydro-2H-pyran-4-yl)piperidin-4-yl)amino)-3-(2,2,2-trifluoroethyl)benzo[b]thiophen-2-yl)prop-2-yn-1-yl)amino)-3-methoxyphenyl)dimethylphosphine oxide] | 91 | 0.11 | 1.47 | 6.83 | – | – | – | – | – | – | –
COc1cc(P(=O)(C2CC2)C2CC2)ccc1NCC#Cc1sc2c(N[C@@H]3CCN(C)C[C@@H]3F)cccc2c1CC(F)(F)F (racemic) [Example 99, dicyclopropyl(4-((3-(7-(((Z)-3-fluoro-1-methylpiperidin-4-yl)amino)-3-(2,2,2-trifluoroethyl)benzo[b]thiophen-2-yl)prop-2-yn-1-yl)amino)-3-methoxyphenyl)phosphine oxide] | 87 | – | – | – | – | 0.15 | 1.44 | 6.58 | – | – | –
COc1cc(P(C)(C)=O)ccc1NCC#Cc1sc2c(N[C@@H]3CCN(C4CCN(C)CC4)C[C@@H]3F)cccc2c1CC(F)(F)F (racemic) [Example 72, (Z)-(4-((3-(7-((3-fluoro-1′-methyl-[1,4′-bipiperidin]-4-yl)amino)-3-(2,2,2-trifluoroethyl)benzo[b]thiophen-2-yl)prop-2-yn-1-yl)amino)-3-methoxyphenyl)dimethylphosphine oxide] | 41 | 0.21 | 0.43 | 4.43 | – | – | – | – | – | – | –
CN1CC[C@@H](Nc2cccc3c(CC(F)(F)F)c(C#CCNc4ccc(P(C)(C)=O)cc4F)sc23)[C@@H](F)C1 [Example 84, (3-fluoro-4-((3-(7-(((3S,4R)-3-fluoro-1-methylpiperidin-4-yl)amino)-3-(2,2,2-trifluoroethyl)benzo[b]thiophen-2-yl)prop-2-yn-1-yl)amino)phenyl)dimethylphosphine oxide] | 45 | 0.17 | 1.42 | 11.5 | – | – | – | – | – | – | –
